Where two headings read alike, the source gives them in different places.
Assays:
[1] = tested on: Pseudomonas aeruginosa (PA) biofilm; assay: Modified Kuhns Biofilm Eradication Model (silicone discs), PA; format: cell-based; conditions: for viable colonies recovered from the biofilm eradication procedure: PA, 2 hrs
[2] = tested on: Candida albicans (CA) biofilm; assay: Modified Kuhns Biofilm Eradication Model (silicone discs), CA; format: cell-based; conditions: for viable colonies recovered from the biofilm eradication procedure: CA, 2 hrs
[3] = tested on: Methicilin resistant Staphyloccus aureus (MRSA) biofilm; assay: Modified Kuhns Biofilm Eradication Model (silicone discs), MRSA; format: cell-based; conditions: for viable colonies recovered from the biofilm eradication procedure: MRSA, 2 hrs; for GTN concentration required to eradicate MRSA: 7% citrate
[4] = tested on: Staphylococcus aureus, Pseudomonas aeruginosa and Candida albicans biofilms; conditions: in the presence of ethanol and citrate
[5] = 10% ethanol and 7% citrate, FIG. 5

## O=C(O)CC(O)(CC(=O)O)C(=O)O [Citrate]
[1]; component alone at 7%
  viable colonies recovered from the biofilm eradication procedure: 2.24E+04 cfu/ml
[1]; Pseudomonas Aeruginosa, 7% alone
  eradication of mature biofilm within 2 hours (in words): neither 1 mg/ml GTN nor 7% citrate alone were able to eradicate
[2]; component alone at 7%
  viable colonies recovered from the biofilm eradication procedure: 2.16E+04 cfu/ml
[2]; Candida Albicans, 7% alone
  eradication of mature biofilm within 2 hours (in words): neither 1 mg/ml GTN nor 7% citrate alone were able to eradicate
[3]; component alone at 7%
  viable colonies recovered from the biofilm eradication procedure: 2.92E+04 cfu/ml

## O=[N+]([O-])OCC(CO[N+](=O)[O-])O[N+](=O)[O-] [GTN, glyceryl trinitrate]
[4]
  GTN concentration to fully eradicate mature biofilms within 2 hours: 100 microgram/ml
[4]; full eradication within 2 hours
  reduction of GTN concentration versus what would be needed by itself: 10 fold
[1]
  eradication of mature biofilm within 2 hours (in words): neither 1 mg/ml GTN nor 7% citrate alone were able to eradicate
[1]; [5]
  GTN concentration that eradicated P.aeruginosa: 0.2 mg/mL
[1]; component alone at 1 mg/ml
  viable colonies recovered from the biofilm eradication procedure: 2.05E+03 cfu/ml
[2]
  eradication of mature biofilm within 2 hours (in words): neither 1 mg/ml GTN nor 7% citrate alone were able to eradicate
[2]; [5]
  GTN concentration that eradicated C. albicans: 0.2 mg/mL
[2]; component alone at 1 mg/ml
  viable colonies recovered from the biofilm eradication procedure: 5.00E+03 cfu/ml
[3]; [5]
  GTN concentration that fully eradicated MRSA: 0.5 mg/mL
[3]; 15% ethanol, FIG. 6
  GTN concentration required to eradicate MRSA: 0.2 mg/mL
[3]; 20% ethanol, FIG. 7
  GTN concentration required to eradicate MRSA: 0.1 mg/mL
[3]; component alone at 1 mg/ml
  viable colonies recovered from the biofilm eradication procedure: 5.00E+03 cfu/ml

## O=S(=O)(O)CCS [MesNA]
[1]; component alone at 5%
  viable colonies recovered from the biofilm eradication procedure: 5.00E+05 cfu/ml
[2]; component alone at 5%
  viable colonies recovered from the biofilm eradication procedure: 5.00E+05 cfu/ml
[3]; component alone at 5%
  viable colonies recovered from the biofilm eradication procedure: 5.00E+05 cfu/ml

## CCN(CC)C(=S)SSC(=S)N(CC)CC [Disulfiram]
[1]; component alone at 0.2 mg/ml
  viable colonies recovered from the biofilm eradication procedure: 5.00E+05 cfu/ml
[2]; component alone at 0.2 mg/ml
  viable colonies recovered from the biofilm eradication procedure: 0.00E+00 cfu/ml
[3]; component alone at 0.2 mg/ml
  viable colonies recovered from the biofilm eradication procedure: 2.00E+04 cfu/ml
